# Measured values from patent publication US20240246942A1, “KINASE INHIBITORS FOR THE TREATMENT OF NEURODEGENERATIVE DISEASES” (priority 2020, published 2024).
# Key:
# Assay in all cases: biochemical
# [1] = molecular target: T1, panel of 374 wild-type kinases (Homo sapiens, UniProt P16234); conditions: read-out: % Enzyme Activity (relative to DMSO controls), kinase PDGFRa
# T1 construct: purchased Reaction Biology Corporation
# [2] = molecular target: T2, panel of 374 wild-type kinases (Homo sapiens, UniProt P17612); conditions: read-out: % Enzyme Activity (relative to DMSO controls), kinase PKA
# T2 construct: purchased Reaction Biology Corporation
# [3] = molecular target: T3, panel of 374 wild-type kinases (Homo sapiens, UniProt P22607); conditions: read-out: % Enzyme Activity (relative to DMSO controls), FGFR3
# T3 construct: purchased Reaction Biology Corporation
# [4] = molecular target: T4, panel of 374 wild-type kinases (Homo sapiens, UniProt P22694); conditions: read-out: % Enzyme Activity (relative to DMSO controls), kinase PKAcb
# T4 construct: purchased Reaction Biology Corporation
# [5] = molecular target: T5, panel of 374 wild-type kinases (Homo sapiens, UniProt P27361); conditions: read-out: % Enzyme Activity (relative to DMSO controls), ERK1
# T5 construct: purchased Reaction Biology Corporation
# [6] = molecular target: T6, panel of 374 wild-type kinases (Homo sapiens, UniProt P31749); conditions: read-out: % Enzyme Activity (relative to DMSO controls), AKT1
# T6 construct: purchased Reaction Biology Corporation
# [7] = molecular target: T7, panel of 374 wild-type kinases (Homo sapiens, UniProt P42685); conditions: read-out: % Enzyme Activity (relative to DMSO controls), FRK/PTK5
# T7 construct: purchased Reaction Biology Corporation
# T7 sequence (P42685 whole entry): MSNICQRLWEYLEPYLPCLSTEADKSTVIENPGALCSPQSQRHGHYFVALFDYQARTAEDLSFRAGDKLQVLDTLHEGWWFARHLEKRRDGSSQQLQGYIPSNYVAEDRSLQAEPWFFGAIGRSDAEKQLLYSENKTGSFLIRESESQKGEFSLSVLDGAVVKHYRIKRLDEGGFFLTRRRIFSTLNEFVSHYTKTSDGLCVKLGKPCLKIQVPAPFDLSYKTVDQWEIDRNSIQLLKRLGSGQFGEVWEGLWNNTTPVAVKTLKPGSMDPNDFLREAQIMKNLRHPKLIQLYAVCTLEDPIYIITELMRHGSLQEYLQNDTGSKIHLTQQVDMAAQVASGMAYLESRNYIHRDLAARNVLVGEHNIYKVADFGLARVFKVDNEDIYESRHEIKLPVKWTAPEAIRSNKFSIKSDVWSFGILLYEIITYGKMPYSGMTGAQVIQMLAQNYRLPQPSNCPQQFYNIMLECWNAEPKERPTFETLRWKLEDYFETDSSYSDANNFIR
# [8] = molecular target: T8, panel of 374 wild-type kinases (Homo sapiens, UniProt P50613); conditions: read-out: % Enzyme Activity (relative to DMSO controls), CDK7/cyclin H
# T8 construct: purchased Reaction Biology Corporation
# [9] = molecular target: T9, panel of 374 wild-type kinases (Homo sapiens, UniProt P53355); conditions: read-out: % Enzyme Activity (relative to DMSO controls), DAPK1
# T9 construct: purchased Reaction Biology Corporation
# T9 sequence (P53355 whole entry): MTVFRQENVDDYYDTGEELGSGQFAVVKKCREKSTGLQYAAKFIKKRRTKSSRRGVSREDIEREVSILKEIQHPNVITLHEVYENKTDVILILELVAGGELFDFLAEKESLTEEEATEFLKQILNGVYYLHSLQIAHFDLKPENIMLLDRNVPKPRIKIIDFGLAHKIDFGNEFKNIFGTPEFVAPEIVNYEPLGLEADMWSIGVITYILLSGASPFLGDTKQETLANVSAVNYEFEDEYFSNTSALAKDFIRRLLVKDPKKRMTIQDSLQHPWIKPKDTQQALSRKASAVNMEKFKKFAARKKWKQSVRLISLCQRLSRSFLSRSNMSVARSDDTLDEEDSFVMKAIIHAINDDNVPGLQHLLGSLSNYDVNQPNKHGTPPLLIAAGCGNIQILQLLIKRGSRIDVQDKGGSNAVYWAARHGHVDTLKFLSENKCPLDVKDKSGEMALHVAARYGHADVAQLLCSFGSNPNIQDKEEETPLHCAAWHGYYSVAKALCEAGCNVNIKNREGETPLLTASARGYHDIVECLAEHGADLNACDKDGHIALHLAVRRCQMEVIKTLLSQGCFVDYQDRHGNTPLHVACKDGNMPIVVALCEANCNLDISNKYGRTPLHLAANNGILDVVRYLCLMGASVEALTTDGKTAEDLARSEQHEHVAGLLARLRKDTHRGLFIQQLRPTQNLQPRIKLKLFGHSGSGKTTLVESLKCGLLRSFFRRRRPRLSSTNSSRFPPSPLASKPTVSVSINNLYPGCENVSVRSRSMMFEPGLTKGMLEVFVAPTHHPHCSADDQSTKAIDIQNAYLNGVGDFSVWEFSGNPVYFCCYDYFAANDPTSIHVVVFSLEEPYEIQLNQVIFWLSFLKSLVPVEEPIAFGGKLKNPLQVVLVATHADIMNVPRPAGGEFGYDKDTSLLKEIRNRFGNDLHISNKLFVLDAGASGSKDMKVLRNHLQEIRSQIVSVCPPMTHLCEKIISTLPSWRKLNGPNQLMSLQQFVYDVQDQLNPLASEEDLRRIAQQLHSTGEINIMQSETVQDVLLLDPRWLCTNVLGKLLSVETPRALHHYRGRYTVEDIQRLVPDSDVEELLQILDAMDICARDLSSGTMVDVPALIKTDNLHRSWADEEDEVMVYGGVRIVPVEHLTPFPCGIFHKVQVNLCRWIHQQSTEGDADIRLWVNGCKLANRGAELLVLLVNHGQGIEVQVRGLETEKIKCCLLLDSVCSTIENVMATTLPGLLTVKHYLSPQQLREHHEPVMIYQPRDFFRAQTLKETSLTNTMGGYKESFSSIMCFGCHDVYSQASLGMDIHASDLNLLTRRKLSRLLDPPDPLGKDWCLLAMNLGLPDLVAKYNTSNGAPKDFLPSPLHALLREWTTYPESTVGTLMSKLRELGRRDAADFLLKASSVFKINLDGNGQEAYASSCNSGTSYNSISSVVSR
# [10] = molecular target: T10, panel of 374 wild-type kinases (Homo sapiens, UniProt P78368); conditions: read-out: % Enzyme Activity (relative to DMSO controls), CK1g2
# T10 construct: purchased Reaction Biology Corporation
# [11] = molecular target: T11, panel of 374 wild-type kinases (Homo sapiens, UniProt Q13177); conditions: read-out: % Enzyme Activity (relative to DMSO controls), kinase PAK2
# T11 construct: purchased Reaction Biology Corporation
# [12] = molecular target: T12, panel of 374 wild-type kinases (Homo sapiens, UniProt Q13464); conditions: read-out: % Enzyme Activity (relative to DMSO controls), kinase ROCK1
# T12 construct: purchased Reaction Biology Corporation
# [13] = molecular target: T13, panel of 374 wild-type kinases (Homo sapiens, UniProt Q13557); conditions: read-out: % Enzyme Activity (relative to DMSO controls), CAMK2d
# T13 construct: purchased Reaction Biology Corporation
# T13 sequence (Q13557 whole entry): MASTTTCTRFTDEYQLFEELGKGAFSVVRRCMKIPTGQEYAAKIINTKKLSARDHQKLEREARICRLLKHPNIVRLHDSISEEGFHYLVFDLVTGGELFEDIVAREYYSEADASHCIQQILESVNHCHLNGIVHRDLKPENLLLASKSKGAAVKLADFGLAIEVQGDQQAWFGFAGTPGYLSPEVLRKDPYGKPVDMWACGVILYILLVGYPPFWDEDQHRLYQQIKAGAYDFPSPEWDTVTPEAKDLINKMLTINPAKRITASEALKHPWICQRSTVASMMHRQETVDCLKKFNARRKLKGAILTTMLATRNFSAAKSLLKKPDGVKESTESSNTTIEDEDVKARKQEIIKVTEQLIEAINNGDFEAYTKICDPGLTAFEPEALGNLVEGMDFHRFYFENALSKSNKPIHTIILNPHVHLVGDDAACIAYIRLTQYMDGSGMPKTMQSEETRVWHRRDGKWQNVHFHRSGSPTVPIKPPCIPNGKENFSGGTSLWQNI
# [14] = molecular target: T14, panel of 374 wild-type kinases (Homo sapiens, UniProt Q15375); conditions: read-out: % Enzyme Activity (relative to DMSO controls), EPHA7
# T14 construct: purchased Reaction Biology Corporation
# T14 sequence (Q15375 28-998): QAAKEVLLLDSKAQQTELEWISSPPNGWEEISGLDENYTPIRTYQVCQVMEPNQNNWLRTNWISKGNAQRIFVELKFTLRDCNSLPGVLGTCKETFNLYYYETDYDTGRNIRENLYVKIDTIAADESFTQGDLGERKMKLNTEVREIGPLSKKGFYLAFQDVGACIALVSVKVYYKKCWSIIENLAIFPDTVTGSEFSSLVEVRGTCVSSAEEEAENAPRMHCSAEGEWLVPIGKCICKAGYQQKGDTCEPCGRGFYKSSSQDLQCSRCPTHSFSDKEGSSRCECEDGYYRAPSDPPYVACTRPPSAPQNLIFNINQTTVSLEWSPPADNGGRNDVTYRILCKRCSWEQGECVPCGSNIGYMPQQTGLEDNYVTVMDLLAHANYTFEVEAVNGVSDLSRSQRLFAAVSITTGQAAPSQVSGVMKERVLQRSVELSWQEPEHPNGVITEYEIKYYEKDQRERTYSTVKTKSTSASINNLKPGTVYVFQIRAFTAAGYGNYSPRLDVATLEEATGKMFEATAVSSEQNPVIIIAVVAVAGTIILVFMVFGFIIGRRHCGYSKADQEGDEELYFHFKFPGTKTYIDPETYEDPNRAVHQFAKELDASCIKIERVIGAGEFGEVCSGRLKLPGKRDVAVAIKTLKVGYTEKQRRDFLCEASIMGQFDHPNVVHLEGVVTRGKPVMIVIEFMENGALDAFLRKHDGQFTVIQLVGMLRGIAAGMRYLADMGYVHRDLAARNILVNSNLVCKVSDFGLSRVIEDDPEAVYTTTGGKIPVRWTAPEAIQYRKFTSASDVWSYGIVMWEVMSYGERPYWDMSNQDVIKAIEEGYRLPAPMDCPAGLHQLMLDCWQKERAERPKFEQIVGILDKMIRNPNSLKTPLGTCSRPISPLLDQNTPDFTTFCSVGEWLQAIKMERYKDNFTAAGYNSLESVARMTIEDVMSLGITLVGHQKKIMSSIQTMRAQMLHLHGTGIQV
# [15] = molecular target: T15, panel of 374 wild-type kinases (Homo sapiens, UniProt Q16584); conditions: read-out: % Enzyme Activity (relative to DMSO controls), MLK3/MAP3K11
# T15 construct: purchased Reaction Biology Corporation
# [16] = molecular target: T16, panel of 374 wild-type kinases (Homo sapiens, UniProt Q52WX2); conditions: read-out: % Enzyme Activity (relative to DMSO controls), kinase SBK1
# T16 construct: purchased Reaction Biology Corporation
# [17] = molecular target: T17, panel of 374 wild-type kinases (Homo sapiens, UniProt Q6P2M8); conditions: read-out: % Enzyme Activity (relative to DMSO controls), CAMK1b
# T17 construct: purchased Reaction Biology Corporation
# T17 sequence (Q6P2M8 whole entry): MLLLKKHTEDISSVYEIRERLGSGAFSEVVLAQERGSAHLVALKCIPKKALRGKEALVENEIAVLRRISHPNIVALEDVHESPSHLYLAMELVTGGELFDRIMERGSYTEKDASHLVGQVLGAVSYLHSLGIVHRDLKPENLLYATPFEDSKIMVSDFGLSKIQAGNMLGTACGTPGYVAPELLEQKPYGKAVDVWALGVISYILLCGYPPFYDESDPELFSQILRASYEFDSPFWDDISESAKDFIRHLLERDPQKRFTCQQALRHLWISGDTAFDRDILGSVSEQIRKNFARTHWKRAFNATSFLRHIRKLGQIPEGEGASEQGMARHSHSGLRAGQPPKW
# [18] = molecular target: T18, panel of 374 wild-type kinases (Homo sapiens, UniProt Q96L34); conditions: read-out: % Enzyme Activity (relative to DMSO controls), MARK4
# T18 construct: purchased Reaction Biology Corporation
# T18 sequence (Q96L34 1-752): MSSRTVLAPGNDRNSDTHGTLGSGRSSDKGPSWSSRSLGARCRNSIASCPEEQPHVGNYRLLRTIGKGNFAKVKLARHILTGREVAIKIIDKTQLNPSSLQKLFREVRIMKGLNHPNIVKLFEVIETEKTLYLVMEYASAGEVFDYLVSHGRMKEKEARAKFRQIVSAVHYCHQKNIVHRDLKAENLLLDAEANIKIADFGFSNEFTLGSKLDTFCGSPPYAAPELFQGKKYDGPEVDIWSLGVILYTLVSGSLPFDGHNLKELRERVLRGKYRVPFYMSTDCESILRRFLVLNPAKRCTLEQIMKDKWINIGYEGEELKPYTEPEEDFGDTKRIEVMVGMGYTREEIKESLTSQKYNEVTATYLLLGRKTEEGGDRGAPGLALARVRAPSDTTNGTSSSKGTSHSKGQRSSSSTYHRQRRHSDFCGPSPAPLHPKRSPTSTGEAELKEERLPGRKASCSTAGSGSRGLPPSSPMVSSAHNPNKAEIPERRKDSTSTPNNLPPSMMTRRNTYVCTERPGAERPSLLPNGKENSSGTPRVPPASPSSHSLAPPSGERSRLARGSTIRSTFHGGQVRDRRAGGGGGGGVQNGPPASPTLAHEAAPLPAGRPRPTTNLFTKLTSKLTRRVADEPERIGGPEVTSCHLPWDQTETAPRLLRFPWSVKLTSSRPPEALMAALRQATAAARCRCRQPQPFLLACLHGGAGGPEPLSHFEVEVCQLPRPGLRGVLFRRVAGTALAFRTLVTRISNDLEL
# [19] = molecular target: T19, panel of 374 wild-type kinases (Homo sapiens, UniProt Q9BUB5); conditions: read-out: % Enzyme Activity (relative to DMSO controls), MNK1
# T19 construct: purchased Reaction Biology Corporation
# [20] = molecular target: T20, panel of 374 wild-type kinases (Homo sapiens, UniProt Q9HCP0); conditions: read-out: % Enzyme Activity (relative to DMSO controls), CK1g1
# T20 construct: purchased Reaction Biology Corporation
# [21] = molecular target: T21, panel of 374 wild-type kinases (Homo sapiens, UniProt Q9UIK4); conditions: read-out: % Enzyme Activity (relative to DMSO controls), DAPK2
# T21 construct: purchased Reaction Biology Corporation
# T1 sequence (P16234 24-1089): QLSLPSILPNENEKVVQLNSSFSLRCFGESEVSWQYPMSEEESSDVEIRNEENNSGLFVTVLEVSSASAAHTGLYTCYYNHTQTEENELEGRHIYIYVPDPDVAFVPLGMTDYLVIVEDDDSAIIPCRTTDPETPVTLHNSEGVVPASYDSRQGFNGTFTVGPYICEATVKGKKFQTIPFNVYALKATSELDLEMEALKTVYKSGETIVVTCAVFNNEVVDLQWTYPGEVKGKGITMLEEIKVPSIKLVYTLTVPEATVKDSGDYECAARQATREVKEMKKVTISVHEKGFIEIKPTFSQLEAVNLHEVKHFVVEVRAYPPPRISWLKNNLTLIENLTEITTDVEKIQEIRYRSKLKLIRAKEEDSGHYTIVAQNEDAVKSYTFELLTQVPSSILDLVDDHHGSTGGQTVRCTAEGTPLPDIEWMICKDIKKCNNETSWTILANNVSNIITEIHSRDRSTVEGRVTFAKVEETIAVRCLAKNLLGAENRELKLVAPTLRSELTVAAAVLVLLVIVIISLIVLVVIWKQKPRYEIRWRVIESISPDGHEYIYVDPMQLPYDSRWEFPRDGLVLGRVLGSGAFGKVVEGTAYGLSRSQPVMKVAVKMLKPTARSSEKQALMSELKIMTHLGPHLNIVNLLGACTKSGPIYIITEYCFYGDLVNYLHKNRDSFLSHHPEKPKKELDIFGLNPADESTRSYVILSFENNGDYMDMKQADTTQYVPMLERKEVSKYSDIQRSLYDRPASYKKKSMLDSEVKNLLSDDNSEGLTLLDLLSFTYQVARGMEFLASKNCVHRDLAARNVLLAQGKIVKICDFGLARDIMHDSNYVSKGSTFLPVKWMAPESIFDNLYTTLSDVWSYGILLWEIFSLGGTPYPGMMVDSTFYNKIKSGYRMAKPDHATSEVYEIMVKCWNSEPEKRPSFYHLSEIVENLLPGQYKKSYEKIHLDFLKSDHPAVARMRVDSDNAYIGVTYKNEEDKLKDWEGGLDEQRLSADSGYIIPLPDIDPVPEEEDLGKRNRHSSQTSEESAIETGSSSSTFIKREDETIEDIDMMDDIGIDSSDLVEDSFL
compound,measurement,setting,value
"O=C(Nc1cnn(-c2csc(C(=O)NC3COC3)c2)c1)Nc1c(F)cccc1Cl [Compound 25, 4-(4-(3-(2-chloro-6-fluorophenyl)ureido)-1H-pyrazol-1-yl)-N-(oxetan-3-yl)thiophene-2-carboxamide]",remaining activity at 5 µM,[1],107%
same,remaining activity at 5 µM,[2],108%
same,remaining activity at 5 µM,[3],92%
same,remaining activity at 5 µM,[4],98.3%
same,remaining activity at 5 µM,[5],92.4%
same,remaining activity at 5 µM,[6],105%
same,remaining activity at 5 µM,[7],95.6%
same,remaining activity at 5 µM,[8],95.8%
same,remaining activity at 5 µM,[9],98.9%
same,remaining activity at 5 µM,[10],90.2%
same,remaining activity at 5 µM,[11],95.3%
same,remaining activity at 5 µM,[12],78.2%
same,remaining activity at 5 µM,[13],93.5%
same,remaining activity at 5 µM,[14],91.2%
same,remaining activity at 5 µM,[15],84.7%
same,remaining activity at 5 µM,[16],97.7%
same,remaining activity at 5 µM,[17],102%
same,remaining activity at 5 µM,[18],97.9%
same,remaining activity at 5 µM,[19],103%
same,remaining activity at 5 µM,[20],102%
same,remaining activity at 5 µM,[21],102%
"O=C(Nc1cnn(-c2csc(C(=O)NC3COC3)c2)c1)Nc1ccccc1Cl [Compound 17, 4-(4-(3-(2-chlorophenyl)ureido)-1H-pyrazol-1-yl)-N-(oxetan-3-yl)thiophene-2-carboxamide]",remaining activity at 5 µM,[1],95.2%
same,remaining activity at 5 µM,[2],99.8%
same,remaining activity at 5 µM,[3],97.8%
same,remaining activity at 5 µM,[4],99%
same,remaining activity at 5 µM,[5],92.8%
same,remaining activity at 5 µM,[6],95.4%
same,remaining activity at 5 µM,[7],97.4%
same,remaining activity at 5 µM,[8],99.7%
same,remaining activity at 5 µM,[9],104%
same,remaining activity at 5 µM,[10],98.5%
same,remaining activity at 5 µM,[11],90.1%
same,remaining activity at 5 µM,[12],109%
same,remaining activity at 5 µM,[13],103%
same,remaining activity at 5 µM,[14],103%
same,remaining activity at 5 µM,[15],93.5%
same,remaining activity at 5 µM,[16],99.1%
same,remaining activity at 5 µM,[17],96.3%
same,remaining activity at 5 µM,[18],108%
same,remaining activity at 5 µM,[19],94.3%
same,remaining activity at 5 µM,[20],99%
same,remaining activity at 5 µM,[21],103%
"Cc1sc(C(=O)NC2COC2)cc1-n1cc(NC(=O)Nc2c(F)cccc2Cl)cn1 [Compound 27, 4-(4-(3-(2-chloro-6-fluorophenyl)ureido)-1H-pyrazol-1-yl)-5-methyl-N-(oxetan-3-yl)thiophene-2-carboxamide]",remaining activity at 10 µM,[1]; 10 uM,114%
same,remaining activity at 10 µM,[2]; 10 uM,94.5%
same,remaining activity at 10 µM,[3]; 10 uM,137%
same,remaining activity at 10 µM,[4]; 10 uM,104%
same,remaining activity at 10 µM,[5]; 10 uM,107%
same,remaining activity at 10 µM,[6]; 10 uM,105%
same,remaining activity at 10 µM,[7]; 10 uM,87.3%
same,remaining activity at 10 µM,[8]; 10 uM,103%
same,remaining activity at 10 µM,[9]; 10 uM,104%
same,remaining activity at 10 µM,[10]; 10 uM,104%
same,remaining activity at 10 µM,[11]; 10 uM,106%
same,remaining activity at 10 µM,[12]; 10 uM,96.8%
same,remaining activity at 10 µM,[13]; 10 uM,91.3%
same,remaining activity at 10 µM,[14]; 10 uM,98.6%
same,remaining activity at 10 µM,[15]; 10 uM,90.7%
same,remaining activity at 10 µM,[16]; 10 uM,87.5%
same,remaining activity at 10 µM,[17]; 10 uM,80.1%
same,remaining activity at 10 µM,[18]; 10 uM,108%
same,remaining activity at 10 µM,[19]; 10 uM,94.2%
same,remaining activity at 10 µM,[20]; 10 uM,101%
same,remaining activity at 10 µM,[21]; 10 uM,99.5%
